Test results as given in patent publication US11707451B2, “Pharmaceutical composition for modified release” (ASTELLAS PHARMA INC., priority 2010, dated 2023).

Assay: Pharmacokinetics (PK) test of immediate release formulation (capsule formulation) in human
Format: in vivo
Settings: healthy subjects; immediate release capsules, 0.1 to 340 mg; FIG. 11
Procedure: The immediate release formulations (capsule formulations) containing 0.1 mg, 1 mg, 5 mg, 20 mg, and 80 mg of the compound A were used in combinations as needed so that the dose of compound A became 0.1 mg, 1 mg, 3 mg, 10 mg, 30 mg, 100 mg, 160 mg, 240 mg, and 340 mg.

SMILES: Nc1nc(CC(=O)Nc2ccc(CCNC[C@H](O)c3ccccc3)cc2)cs1 [compound A, (R)-2-(2-aminothiazol-4-yl)-4′-[2-[(2-hydroxy-2-phenylethyl)amino]ethyl]acetic acid anilide]
- relation between maximum plasma concentration (Cmax) and increase in heart rate from the base line: positive correlation
